Source: patent publication US8003785B2 (Takeda Pharmaceutical Company Limited, priority 2008, dated 2011)

Each compound was assayed against T1, PLK1 (Homo sapiens, UniProt P53350) (assay: Biochemical Characterization Assay: HTRF kinase assay, GST-PLK1 phosphorylation of GST-p53). Conditions: GST-PLK1, GST-p53 substrate, ATP.
T1 construct: Full-length, active GST-PLK1 is purified from Sf9 insect cells; made in house; host or cells: Sf9 insect cells
T1 sequence (P53350 whole entry): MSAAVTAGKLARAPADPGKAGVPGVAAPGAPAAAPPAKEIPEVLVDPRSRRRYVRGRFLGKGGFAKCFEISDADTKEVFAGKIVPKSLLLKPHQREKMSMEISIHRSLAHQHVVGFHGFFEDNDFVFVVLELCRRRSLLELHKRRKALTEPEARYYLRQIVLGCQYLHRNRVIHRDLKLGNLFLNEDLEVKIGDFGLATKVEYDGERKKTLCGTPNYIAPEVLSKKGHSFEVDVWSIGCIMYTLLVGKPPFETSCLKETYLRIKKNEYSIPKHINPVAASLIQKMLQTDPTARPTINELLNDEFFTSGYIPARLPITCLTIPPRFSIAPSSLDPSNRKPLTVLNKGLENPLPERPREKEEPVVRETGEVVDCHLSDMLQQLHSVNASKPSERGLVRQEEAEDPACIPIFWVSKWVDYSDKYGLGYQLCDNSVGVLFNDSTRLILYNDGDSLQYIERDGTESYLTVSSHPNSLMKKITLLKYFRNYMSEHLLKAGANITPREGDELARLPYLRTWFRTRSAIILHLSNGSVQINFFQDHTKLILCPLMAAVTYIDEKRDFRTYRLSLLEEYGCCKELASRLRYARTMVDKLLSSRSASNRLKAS
Method in brief: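 HTRF read-out of p53 phosphorylation: after EDTA stop, anti-phospho-p53 antibody bound 30 min at 37 °C in HEPES pH 7 buffer, with Eu-anti-rabbit/APC-anti-GST detection. Kinase step used full-length Sf9-expressed GST-PLK1 (3 ug/mL) and E. coli GST-p53 substrate, 35 min at 37 °C.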
In the case of `COc1cc(C(=O)NC2CC(C)(C)NC(C)(C)C2)ccc1Nc1ncc2c(n1)N(C1CCCC1)CC(F)(F)C(=O)N2C` [Example I-65, 4-(9-cyclopentyl-7,7-difluoro-5-methyl-6-oxo-6,7,8,9-tetrahydro-5H-pyrimido[4,5-b][1,4]diazepin-2-ylamino)-3-methoxy-N-(2,2,6,6-tetramethyl-piperidin-4-yl)-benzamide], the IC50 is reported as 1 to 50 nM.
For `COc1cc(C(=O)NC2CCN(C3CC3)CC2)ccc1Nc1ncc2c(n1)N(C1CCCC1)CC(F)(F)C(=O)N2C` [Example I-66, 4-(9-cyclopentyl-7,7-difluoro-5-methyl-6-oxo-6,7,8,9-tetrahydro-5H-pyrimido[4,5-b][1,4]diazepin-2-ylamino)-N-(1-cyclopropyl-piperidin-4-yl)-3-methoxy-benzamide], the IC50 was 1 to 50 nM.
In the case of `CCN1CCC(NC(=O)c2ccc(Nc3ncc4c(n3)N(C3CCCC3)CC(F)(F)C(=O)N4C)c(OC)c2)CC1` [Example I-67, 4-(9-cyclopentyl-7,7-difluoro-5-methyl-6-oxo-6,7,8,9-tetrahydro-5H-pyrimido[4,5-b][1,4]diazepin-2-ylamino)-N-(1-ethyl-piperidin-4-yl)-3-methoxy-benzamide], the IC50 is reported as 1 to 50 nM.
For `COc1cc(C(=O)N[C@H]2CC[C@@H](O)CC2)ccc1Nc1ncc2c(n1)N(C1CCCC1)CC(F)(F)C(=O)N2C` [Example I-68, cis-4-(9-cyclopentyl-7,7-difluoro-5-methyl-6-oxo-6,7,8,9-tetrahydro-5H-pyrimido[4,5-b][1,4]diazepin-2-ylamino)-N-(4-hydroxy-cyclohexyl)-3-methoxy-benzamide], the IC50 was 1 to 50 nM.
Compound `COc1cc(C(=O)N[C@H]2CC[C@H](O)CC2)ccc1Nc1ncc2c(n1)N(C1CCCC1)CC(F)(F)C(=O)N2C` [Example I-69, trans-4-(9-cyclopentyl-7,7-difluoro-5-methyl-6-oxo-6,7,8,9-tetrahydro-5H-pyrimido[4,5-b][1,4]diazepin-2-ylamino)-N-(4-hydroxy-cyclohexyl)-3-methoxy-benzamide] has an IC50 of 1 to 50 nM.
`COc1cc(C(=O)NC2CCN(C(=O)OCC3c4ccccc4-c4ccccc43)CC2)ccc1Nc1ncc2c(n1)N(C1CCCC1)CC(F)(F)C(=O)N2C` [Example I-70, 4-[4-(9-cyclopentyl-7,7-difluoro-5-methyl-6-oxo-6,7,8,9-tetrahydro-5H-pyrimido[4,5-b][1,4]diazepin-2-ylamino)-3-methoxy-benzoylamino]-piperidine-1-carboxylic acid 9H-fluoren-9-ylmethyl ester] gave an IC50 of 1 to 50 nM.
With `COc1cc(C(=O)NC2CCN(C(=O)OC(C)(C)C)CC2)ccc1Nc1ncc2c(n1)N(C1CCCC1)CC(F)(F)C(=O)N2C` [Example I-71, 4-[4-(9-cyclopentyl-7,7-difluoro-5-methyl-6-oxo-6,7,8,9-tetrahydro-5H-pyrimido[4,5-b][1,4]diazepin-2-ylamino)-3-methoxy-benzoylamino]-piperidine-1-carboxylic acid tert-butyl ester] the IC50 was 51 to 500 nM.
Compound `COc1cc(C(=O)NC2CCNCC2)ccc1Nc1ncc2c(n1)N(C1CCCC1)CC(F)(F)C(=O)N2C` [Example I-72, 4-(9-cyclopentyl-7,7-difluoro-5-methyl-6-oxo-6,7,8,9-tetrahydro-5H-pyrimido[4,5-b][1,4]diazepin-2-ylamino)-3-methoxy-N-piperidin-4-yl-benzamide] has an IC50 of 1 to 50 nM.
In the case of `COc1cc(C(=O)NCCCNC(=O)OCC2c3ccccc3-c3ccccc32)ccc1Nc1ncc2c(n1)N(C1CCCC1)CC(F)(F)C(=O)N2C` [Example I-73, {3-[4-(9-cyclopentyl-7,7-difluoro-5-methyl-6-oxo-6,7,8,9-tetrahydro-5H-pyrimido[4,5-b][1,4]diazepin-2-ylamino)-3-methoxy-benzoylamino]-propyl}-carbamic acid 9H-fluoren-9-ylmethyl ester], the IC50 is reported as 51 to 500 nM.
Compound `COc1cc(C(=O)NCCCN)ccc1Nc1ncc2c(n1)N(C1CCCC1)CC(F)(F)C(=O)N2C` [Example I-74, N-(3-amino-propyl)-4-(9-cyclopentyl-7,7-difluoro-5-methyl-6-oxo-6,7,8,9-tetrahydro-5H-pyrimido[4,5-b][1,4]diazepin-2-ylamino)-3-methoxy-benzamide] has an IC50 of 1 to 50 nM.
`COc1cc(C(=O)NC2CCN(CCF)CC2)ccc1Nc1ncc2c(n1)N(C1CCCC1)CC(F)(F)C(=O)N2C` [Example I-75, 4-(9-cyclopentyl-7,7-difluoro-5-methyl-6-oxo-6,7,8,9-tetrahydro-5H-pyrimido[4,5-b][1,4]diazepin-2-ylamino)-N-[1-(2-fluoro-ethyl)-piperidin-4-yl]-3-methoxy-benzamide] was tested, and the IC50 was 1 to 50 nM.
Work on `COc1cc(C(=O)NC2CCN(CCCS(C)(=O)=O)CC2)ccc1Nc1ncc2c(n1)N(C1CCCC1)CC(F)(F)C(=O)N2C` [Example I-76, 4-(9-cyclopentyl-7,7-difluoro-5-methyl-6-oxo-6,7,8,9-tetrahydro-5H-pyrimido[4,5-b][1,4]diazepin-2-ylamino)-N-[1-(3-methanesulfonyl-propyl)-piperidin-4-yl]-3-methoxy-benzamide] yielded an IC50 of 1 to 50 nM.
Compound `COc1cc(C(=O)NC2CCN(CC(F)(F)F)CC2)ccc1Nc1ncc2c(n1)N(C1CCCC1)CC(F)(F)C(=O)N2C` [Example I-77, 4-(9-cyclopentyl-7,7-difluoro-5-methyl-6-oxo-6,7,8,9-tetrahydro-5H-pyrimido[4,5-b][1,4]diazepin-2-ylamino)-3-methoxy-N-[1-(2,2,2-trifluoro-ethyl)-piperidin-4-yl]-benzamide] has an IC50 of 1 to 50 nM.
`COc1cc(C(=O)NCCCN(C)C)ccc1Nc1ncc2c(n1)N(C1CCCC1)CC(F)(F)C(=O)N2C` [Example I-78, 4-(9-cyclopentyl-7,7-difluoro-5-methyl-6-oxo-6,7,8,9-tetrahydro-5H-pyrimido[4,5-b][1,4]diazepin-2-ylamino)-N-(3-dimethylamino-propyl)-3-methoxy-benzamide] showed an IC50 of 1 to 50 nM.
For `COc1cc(C(=O)NCCCN2CCOCC2)ccc1Nc1ncc2c(n1)N(C1CCCC1)CC(F)(F)C(=O)N2C` [Example I-79, 4-(9-cyclopentyl-7,7-difluoro-5-methyl-6-oxo-6,7,8,9-tetrahydro-5H-pyrimido[4,5-b][1,4]diazepin-2-ylamino)-3-methoxy-N-(3-morpholin-4-yl-propyl)-benzamide], the IC50 was 1 to 50 nM.
`COc1cc(C(=O)NCCCN2CCCC2)ccc1Nc1ncc2c(n1)N(C1CCCC1)CC(F)(F)C(=O)N2C` [Example I-80, 4-(9-cyclopentyl-7,7-difluoro-5-methyl-6-oxo-6,7,8,9-tetrahydro-5H-pyrimido[4,5-b][1,4]diazepin-2-ylamino)-3-methoxy-N-(3-pyrrolidin-1-yl-propyl)-benzamide] was tested, and the IC50 was 1 to 50 nM.
`COc1cc(C(=O)N[C@@H]2CCN(C(=O)OC(C)(C)C)C2)ccc1Nc1ncc2c(n1)N(C1CCCC1)CC(F)(F)C(=O)N2C` [Example I-81, R-3-[4-(9-cyclopentyl-7,7-difluoro-5-methyl-6-oxo-6,7,8,9-tetrahydro-5H-pyrimido[4,5-b][1,4]diazepin-2-ylamino)-3-methoxy-benzoylamino]-pyrrolidine-1-carboxylic acid tert-butyl ester] was tested, and the IC50 was 51 to 500 nM.
In the case of `COc1cc(C(=O)N[C@H]2CCN(C(=O)OC(C)(C)C)C2)ccc1Nc1ncc2c(n1)N(C1CCCC1)CC(F)(F)C(=O)N2C` [Example I-82, S-3-[4-(9-cyclopentyl-7,7-difluoro-5-methyl-6-oxo-6,7,8,9-tetrahydro-5H-pyrimido[4,5-b][1,4]diazepin-2-ylamino)-3-methoxy-benzoylamino]-pyrrolidine-1-carboxylic acid tert-butyl ester], the IC50 is reported as 1 to 50 nM.
For `COc1cc(C(=O)N[C@H]2CCNC2)ccc1Nc1ncc2c(n1)N(C1CCCC1)CC(F)(F)C(=O)N2C` [Example I-83, S-4-(9-cyclopentyl-7,7-difluoro-5-methyl-6-oxo-6,7,8,9-tetrahydro-5H-pyrimido[4,5-b][1,4]diazepin-2-ylamino)-3-methoxy-N—(S)-pyrrolidin-3-yl-benzamide], the IC50 was 1 to 50 nM.
Compound `COc1cc(C(=O)NCCCN2CCCCC2)ccc1Nc1ncc2c(n1)N(C1CCCC1)CC(F)(F)C(=O)N2C` [Example I-84, 4-(9-cyclopentyl-7,7-difluoro-5-methyl-6-oxo-6,7,8,9-tetrahydro-5H-pyrimido[4,5-b][1,4]diazepin-2-ylamino)-3-methoxy-N-(3-piperidin-1-yl-propyl)-benzamide] has an IC50 of 1 to 50 nM.
In the case of `COc1cc(C(=O)NC2CC(C)(C)N(C)C(C)(C)C2)ccc1Nc1ncc2c(n1)N(C1CCCC1)CC(F)(F)C(=O)N2C` [Example I-85, 4-(9-cyclopentyl-7,7-difluoro-5-methyl-6-oxo-6,7,8,9-tetrahydro-5H-pyrimido[4,5-b][1,4]diazepin-2-ylamino)-3-methoxy-N-(1,2,2,6,6-pentamethyl-piperidin-4-yl)-benzamide], the IC50 is reported as 1 to 50 nM.
In the case of `COc1cc(C(=O)NCCCN2CCN(C)CC2)ccc1Nc1ncc2c(n1)N(C1CCCC1)CC(F)(F)C(=O)N2C` [Example I-87, 4-(9-cyclopentyl-7,7-difluoro-5-methyl-6-oxo-6,7,8,9-tetrahydro-5H-pyrimido[4,5-b][1,4]diazepin-2-ylamino)-3-methoxy-N-[3-(4-methyl-piperazin-1-yl)-propyl]-benzamide], the IC50 is reported as 1 to 50 nM.
For `COc1cc(C(=O)NC2CCN(C(=O)C(C)(C)N)CC2)ccc1Nc1ncc2c(n1)N(C1CCCC1)CC(F)(F)C(=O)N2C` [Example I-88, N-[1-(2-amino-2-methyl-propionyl)-piperidin-4-yl]-4-(9-cyclopentyl-7,7-difluoro-5-methyl-6-oxo-6,7,8,9-tetrahydro-5H-pyrimido[4,5-b][1,4]diazepin-2-ylamino)-3-methoxy-benzamide], the IC50 was 1 to 50 nM.
Work on `COc1cc(C(=O)N[C@@H]2CCNC(=O)C2)ccc1Nc1ncc2c(n1)N(C1CCCC1)CC(F)(F)C(=O)N2C` [Example I-89, R-4-(9-cyclopentyl-7,7-difluoro-5-methyl-6-oxo-6,7,8,9-tetrahydro-5H-pyrimido[4,5-b][1,4]diazepin-2-ylamino)-3-methoxy-N-(2-oxo-piperidin-4-yl)-benzamide] yielded an IC50 of 1 to 50 nM.
